# Data taken from patent publication US20060069132A1, “Azolecarboxamide herbicides” (priority 2004, published 2006).
# Legend:
# barnyardgrass [1] = assay: Test A pre-/postemergence herbicide test; assay type: in vivo, Echinochloa crus-galli
# Procedure, shortened: (§1)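 Visual injury rating on a 0–100 scale (0 no effect, 100 complete control) versus untreated controls, about ten days after treatment in greenhouse. Pre: directed soil spray onto seeded sandy loam. Post: spray to runoff on plants 2–10 cm tall at one- to two-leaf stage.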
# large crabgrass [2] = assay: Test A pre-/postemergence herbicide test; assay type: in vivo, Digitaria sanguinalis
# Procedure, shortened: as §1
# giant foxtail [3] = assay: Test A pre-/postemergence herbicide test; assay type: in vivo, Setaria faberi
# Procedure, shortened: as §1
# morningglory [4] = assay: Test A pre-/postemergence herbicide test; assay type: in vivo, Ipomoea spp.
# Procedure, shortened: as §1
# redroot pigweed = assay: Test A pre-/postemergence herbicide test; assay type: in vivo, Amaranthus retroflexus
# Procedure, shortened: as §1
# velvetleaf [5] = assay: Test A pre-/postemergence herbicide test; assay type: in vivo, Abutilon theophrasti
# Procedure, shortened: as §1
# barnyardgrass [6] = assay: Test B pre-/postemergence herbicide test; assay type: in vivo, Echinochloa crus-galli; settings: for Barnyardgrass plant response rating: postemergence
# Procedure, shortened: (§2)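 Herbicidal effect was judged by eye on a 0–100 scale after plants stood 13 to 15 days in the greenhouse following pre- or postemergence treatment with surfactant-containing formulations.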
# Surinam grass = assay: Test B pre-/postemergence herbicide test; assay type: in vivo, Urochloa decumbens; settings: for Surinam Grass plant response rating: postemergence
# Procedure, shortened: (§3)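 Visual rating, 0 (no effect) to 100 (complete control), versus untreated controls after 13–15 d in greenhouse. Pre- and postemergence applications (postemergence plants 2–18 cm, 1–4 leaves); flooded paddy arm at 2-leaf stage. Compounds in non-phytotoxic solvent plus surfactant.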
# cocklebur = assay: Test B pre-/postemergence herbicide test; assay type: in vivo, Xanthium strumarium; settings: for Cocklebur plant response rating: postemergence
# Procedure, shortened: as §2
# corn = assay: Test B pre-/postemergence herbicide test; assay type: in vivo, Zea mays; settings: for Corn plant response rating: postemergence
# Procedure, shortened: as §3
# large crabgrass [7] = assay: Test B pre-/postemergence herbicide test; assay type: in vivo, Digitaria sanguinalis; settings: for Crabgrass, Large plant response rating: postemergence
# Procedure, shortened: as §3
# giant foxtail [8] = assay: Test B pre-/postemergence herbicide test; assay type: in vivo, Setaria faberi; settings: for Foxtail, Giant plant response rating: postemergence
# Procedure, shortened: as §3
# lambsquarters = assay: Test B pre-/postemergence herbicide test; assay type: in vivo, Chenopodium album; settings: for Lambsquarters plant response rating: postemergence
# Procedure, shortened: as §3
# morningglory [9] = assay: Test B pre-/postemergence herbicide test; assay type: in vivo, Ipomoea coccinea; settings: for Morningglory plant response rating: postemergence
# Procedure, shortened: as §2
# pigweed = assay: Test B pre-/postemergence herbicide test; assay type: in vivo, Amaranthus retroflexus; settings: for Pigweed plant response rating: postemergence
# Procedure, shortened: as §3
# rice [10] = assay: Test B pre-/postemergence herbicide test; assay type: in vivo, Oryza sativa; settings: 0 = no effect, 100 = complete control, preemergence
# Procedure, shortened: as §3
# velvetleaf [11] = assay: Test B pre-/postemergence herbicide test; assay type: in vivo, Abutilon theophrasti; settings: for Velvetleaf plant response rating: postemergence
# Procedure, shortened: as §3
# blackgrass = assay: Test B postemergence herbicide test; assay type: in vivo, Alopecurus myosuroides; settings: postemergence
# Procedure, shortened: (§4)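 Treated at 2-leaf (paddy) or 1–4-leaf, 2–18 cm (postemergence); greenhouse 13–15 d; visual score vs control, 0 none to 100 complete control; dash = not tested.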
# wheat = assay: Test B postemergence herbicide test; assay type: in vivo, Triticum aestivum; parameters: key to Wheat plant response rating: 0 = no effect, 100 = complete control; settings: postemergence
# Procedure, shortened: as §4
# wild oat = assay: Test B postemergence herbicide test; assay type: in vivo, Avena fatua; settings: postemergence
# Procedure, shortened: as §4
# rice [12] = assay: Test B flooded paddy test; assay type: in vivo, Oryza sativa; settings: 1000 g ai/ha, scale 0 to 100 (0 no effect, 100 complete control)
# Procedure, shortened: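 Read-out: visual comparison with controls, scored 0 to 100, where 100 means complete control and 0 no effect. Formulated chemicals were applied postemergence to plants 2–18 cm tall (1- to 4-leaf), or to flooded-paddy plants at the 2-leaf stage, then held 13 to 15 days under glass.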
# [13] = test system: small flower umbrella sedge; assay: Test B flooded paddy test; assay type: in vivo, Cyperus difformis; settings: 1000 g ai/ha, scale 0 to 100 (0 no effect, 100 complete control)
# Procedure, shortened: as §4
# ducksalad = assay: Test B flooded paddy test; assay type: in vivo, Heteranthera limosa; settings: 1000 g ai/ha, scale 0 to 100 (0 no effect, 100 complete control)
# Procedure, shortened: as §4
# barnyardgrass [14] = assay: Test B flooded paddy test; assay type: in vivo, Echinochloa crus-galli; settings: 1000 g ai/ha, scale 0 to 100 (0 no effect, 100 complete control)
# Procedure, shortened: as §4
# [15] = Postemergence, 500 g ai/ha, 0 to 100 scale, 0 no effect, 100 complete control
# [16] = Postemergence, 2000 g ai/ha, 0 to 100 scale, 0 no effect, 100 complete control
# [17] = Preemergence, 2000 g ai/ha, visual rating, 0 to 100 scale (0 no effect, 100 complete control)
# [18] = preemergence, 500 g ai/ha, visual injury, 0 to 100 scale (0 no effect, 100 complete control)
# [19] = 125 g ai/ha, 0 = no effect, 100 = complete control, preemergence
# [20] = 125 g ai/ha, visual rating, scale 0 (no effect) to 100 (complete control)
# [21] = 500 g ai/ha, visual rating, 0 = no effect, 100 = complete control, preemergence
# [22] = 500 g ai/ha, scale 0 to 100, 0 is no effect, 100 is complete control
compound,measurement,setting,value
CCn1nc(C(C)(C)C)cc1C(=O)Nc1cncc(C(=O)NCC(F)(F)F)n1 [Compound 291],Barnyardgrass plant response rating,barnyardgrass [1]; [15],25
same,"Plant response rating, Barnyardgrass",barnyardgrass [1]; [16],40
same,Barnyardgrass plant response rating,barnyardgrass [1]; [17],25
same,Barnyardgrass plant response rating,barnyardgrass [1]; [18],0
same,"Crabgrass, Large plant response rating",large crabgrass [2]; [15],5
same,"Plant response rating, Crabgrass, Large",large crabgrass [2]; [16],25
same,"Crabgrass, Large plant response rating",large crabgrass [2]; [17],10
same,"Crabgrass, Large plant response rating",large crabgrass [2]; [18],0
same,"Foxtail, Giant plant response rating",giant foxtail [3]; [15],30
same,"Plant response rating, Foxtail, Giant",giant foxtail [3]; [16],75
same,"Foxtail, Giant plant response rating",giant foxtail [3]; [17],0
same,"Foxtail, Giant plant response rating",giant foxtail [3]; [18],0
same,Morningglory plant response rating,morningglory [4]; [15],5
same,"Plant response rating, Morningglory",morningglory [4]; [16],10
same,Morningglory plant response rating,morningglory [4]; [17],0
same,Morningglory plant response rating,morningglory [4]; [18],0
same,Pigweed plant response rating,redroot pigweed; [15],20
same,"Plant response rating, Pigweed",redroot pigweed; [16],30
same,Pigweed plant response rating,redroot pigweed; [17],35
same,Pigweed plant response rating,redroot pigweed; [18],0
same,Velvetleaf plant response rating,velvetleaf [5]; [15],5
same,"Plant response rating, Velvetleaf",velvetleaf [5]; [16],10
same,Velvetleaf plant response rating,velvetleaf [5]; [17],0
same,Velvetleaf plant response rating,velvetleaf [5]; [18],0
same,Barnyardgrass plant response rating (0 to 100 scale),barnyardgrass [6]; [19],0
same,Barnyardgrass plant response rating,barnyardgrass [6]; [20],0
same,"Plant response rating, Barnyardgrass",barnyardgrass [6]; [21],0
same,Barnyardgrass plant response rating,barnyardgrass [6]; [22],30
same,Surinam Grass plant response rating (0 to 100 scale),Surinam grass; [19],0
same,Surinam Grass plant response rating,Surinam grass; [20],0
same,"Plant response rating, Surinam Grass",Surinam grass; [21],0
same,Surinam Grass plant response rating,Surinam grass; [22],60
same,Cocklebur plant response rating (0 to 100 scale),cocklebur; [19],0
same,Cocklebur plant response rating,cocklebur; [20],0
same,"Plant response rating, Cocklebur",cocklebur; [21],0
same,Cocklebur plant response rating,cocklebur; [22],10
same,Corn plant response rating (0 to 100 scale),corn; [19],0
same,Corn plant response rating,corn; [20],0
same,"Plant response rating, Corn",corn; [21],0
same,Corn plant response rating,corn; [22],60
same,"Crabgrass, Large plant response rating (0 to 100 scale)",large crabgrass [7]; [19],0
same,"Crabgrass, Large plant response rating",large crabgrass [7]; [20],0
same,"Plant response rating, Crabgrass, Large",large crabgrass [7]; [21],0
same,"Crabgrass, Large plant response rating",large crabgrass [7]; [22],30
same,"Foxtail, Giant plant response rating (0 to 100 scale)",giant foxtail [8]; [19],0
same,"Foxtail, Giant plant response rating",giant foxtail [8]; [20],10
same,"Plant response rating, Foxtail, Giant",giant foxtail [8]; [21],0
same,"Foxtail, Giant plant response rating",giant foxtail [8]; [22],80
same,Lambsquarters plant response rating (0 to 100 scale),lambsquarters; [19],0
same,Lambsquarters plant response rating,lambsquarters; [20],20
same,"Plant response rating, Lambsquarters",lambsquarters; [21],0
same,Lambsquarters plant response rating,lambsquarters; [22],60
same,Morningglory plant response rating (0 to 100 scale),morningglory [9]; [19],0
same,Morningglory plant response rating,morningglory [9]; [20],0
same,"Plant response rating, Morningglory",morningglory [9]; [21],0
same,Morningglory plant response rating,morningglory [9]; [22],40
same,Pigweed plant response rating (0 to 100 scale),pigweed; [19],0
same,Pigweed plant response rating,pigweed; [20],0
same,"Plant response rating, Pigweed",pigweed; [21],0
same,Pigweed plant response rating,pigweed; [22],30
same,Rice plant response rating (0 to 100 scale),rice [10]; 125 g ai/ha,0
same,"Plant response rating, Rice","rice [10]; 500 g ai/ha, visual rating",0
same,Velvetleaf plant response rating,velvetleaf [11]; [20],0
same,"Plant response rating, Velvetleaf",velvetleaf [11]; [21],0
same,Velvetleaf plant response rating,velvetleaf [11]; [22],60
same,Blackgrass plant response rating,blackgrass; [20],0
same,Blackgrass plant response rating,blackgrass; [22],10
same,Wheat plant response rating,wheat; [20],0
same,Wheat plant response rating,wheat; [22],0
same,"Oat, Wild plant response rating",wild oat; [20],10
same,"Oat, Wild plant response rating",wild oat; [22],20
same,Rice plant response rating,rice [12],0
same,"Sedge, Umbrella plant response rating",[13],0
same,Ducksalad plant response rating,ducksalad,0
same,Barnyardgrass plant response rating,barnyardgrass [14],0
